Measurements from patent US10865191B2, “Heterocyclic compounds useful as modulators of TNF alpha” (BRISTOL-MYERS SQUIBB COMPANY, priority 2015, dated 2020).
Counter-ions that a name gives are not always drawn.

Target: TNFα (Homo sapiens, UniProt P01375)
Experiment: TNF induced HEK-Blue assay (NF-kB-driven secreted alkaline phosphatase reporter)
Format: cell-based
Conditions: TNF induced HEK-Blue assay IC50 value, TNFα 0.5 ng/mL, HEK-Blue-CD40L cells, 18 h
How it was run: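 HEK-Blue-CD40L cells (NF-kB-driven SEAP reporter), 20,000/well, added after 30 min pre-incubation of compound (0.004–25 μM final) with TNFα 0.5 ng/mL final at 37 °C; 18 h incubation. SEAP read with QUANTI-Blue at 620 nm; IC50 from 4-parameter logistic fit, normalized to unstimulated and stimulated DMSO controls.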

Chain of TNFα (P01375 77-233 limits assumed): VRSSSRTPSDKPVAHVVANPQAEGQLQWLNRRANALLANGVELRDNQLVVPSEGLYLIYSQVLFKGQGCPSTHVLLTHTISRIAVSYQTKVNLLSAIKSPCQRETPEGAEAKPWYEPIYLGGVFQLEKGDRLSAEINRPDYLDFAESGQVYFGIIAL

IC50 | SMILES
< 1000 nM | C[C@@H](Nc1c(Cl)cnc2ccc(-c3ccc(C(C)(C)O)cc3)cc12)c1ccccc1F [Example 228, (R)-2-(4-(3-chloro-4-((1-(2-fluorophenyl)ethyl)amino)quinolin-6-yl)phenyl)propan-2-ol]
< 1000 nM | CC(Nc1c(Cl)cnc2c(F)cc(-c3cnc(C(C)(C)O)nc3)cc12)c1ccccc1F (racemic) [Example 247, 2-(5-(3-chloro-8-fluoro-4-((1-(2-fluorophenyl)ethyl)amino)quinolin-6-yl)pyrimidin-2-yl)propan-2-ol]

Same assay, conditions: TNFα 0.5 ng/mL, HEK-Blue-CD40L cells, 18 h; read-out: TNF induced HEK-Blue assay IC50 value

SMILES | IC50
Cc1ccc(C)c(Nc2c(Cl)c(C(=O)Nc3ccccc3)nc3ccc(-c4ccc(C#N)nc4)cc23)c1 [Example 35, 3-chloro-6-(6-cyanopyridin-3-yl)-4-((2,5-dimethylphenyl)amino)-N-phenylquinoline-2-carboxamide] | 1000 to 10000 nM
Cc1ccc(C)c(NCc2nc3ccc(-c4ccc(C#N)nc4)cc3c(Nc3cc(C)ccc3C)c2Cl)c1 [Example 3, 5-(3-chloro-4-((2,5-dimethylphenyl)amino)-2-(((2,5-dimethylphenyl)amino)methyl)quinolin-6-yl)picolinonitrile] | 1000 to 10000 nM
CC(Nc1c(Cl)cnc2ccc(-c3ccc(C(C)(C)O)cc3)cc12)c1nccs1 (racemic) [Example 194, 2-(4-(3-chloro-4-((1-(thiazol-2-yl)ethyl)amino)quinolin-6-yl)phenyl)propan-2-ol] | < 1000 nM
Cc1nc2ccc(-c3cnc(C(C)(C)O)nc3)cc2c(N[C@H](C)c2cc(-n3cccn3)ccc2F)c1Cl [Example 365, (R)-2-(5-(3-chloro-4-((1-(2-fluoro-5-(1H-pyrazol-1-yl)phenyl)ethyl)amino)-2-methylquinolin-6-yl)pyrimidin-2-yl)propan-2-ol] | < 1000 nM
COc1ccc(F)c([C@@H](C)Nc2ccnc3ccc(Cl)cc23)c1 [Example 456, (R)-6-chloro-N-(1-(2-fluoro-5-methoxyphenyl)ethyl)quinolin-4-amine] | 10000 to 25000 nM
C[C@H](Nc1c(Cl)cnc2cnc(-c3cnc(N4CCN(CC(=O)O)CC4)nc3)cc12)c1ccccc1F (single isomer, unassigned) [Example 236] | 10000 to 25000 nM
Cc1nc2ccc(-c3cnc(C(C)(C)O)nc3)cc2c(N[C@H](C)c2cc(C(C)(C)O)ccc2F)c1Cl [Example 408, (R)-2-(5-(3-chloro-4-((1-(2-fluoro-5-(2-hydroxypropan-2-yl)phenyl)ethyl)amino)-2-methylquinolin-6-yl)pyrimidin-2-yl)propan-2-ol, TFA Salt] | < 1000 nM
CCOC(=O)c1nc2ccc(-c3ccc(C#N)nc3)cc2c(Nc2cc(C)ccc2C)c1Cl [Example 5, ethyl 3-chloro-6-(6-cyanopyridin-3-yl)-4-((2,5-dimethylphenyl)amino)quinoline-2-carboxylate] | 1000 to 10000 nM
Cc1nc2c(F)cc(-c3cnc(C(C)(C)O)nc3)cc2c(NC(C)c2ccccc2F)c1Cl (racemic) [Example 298, 2-(5-(3-chloro-8-fluoro-4-((1-(2-fluorophenyl)ethyl)amino)-2-methylquinolin-6-yl)pyrimidin-2-yl)propan-2-ol] | < 1000 nM
Cc1nc2ccc(-c3ccc(C(C)(C)O)cc3)cc2c(NC(C)c2ccccc2F)c1Cl (racemic) [Example 308, 2-(4-(3-chloro-4-((1-(2-fluorophenyl)ethyl)amino)-2-methylquinolin-6-yl)phenyl) propan-2-ol] | < 1000 nM
CC(O)C(=O)N1CCN(c2ncc(-c3cc4c(NC(C)c5ccccc5F)c(Cl)cnc4cc3F)cn2)CC1 (single isomer, unassigned) [Example 603, 1-(4-(5-(3-chloro-7-fluoro-4-((1-(2-fluorophenyl)ethyl)amino)quinolin-6-yl)pyrimidin-2-yl)piperazin-1-yl)-2-hydroxypropan-1-one] | < 1000 nM
CC(Nc1c(Cl)cnc2cc(F)c(-c3ccc(C(O)C4CC4)cc3)cc12)c1ccccc1F (stereo not drawn) [Example 262, (4-(3-chloro-7-fluoro-4-((1-(2-fluorophenyl)ethyl)amino)quinolin-6-yl)phenyl)(cyclopropyl)methanol] | 1000 to 10000 nM
Cc1ccc(C)c(Nc2c(Cl)c(COc3cccnc3)nc3ccc(-c4ccc(C#N)nc4)cc23)c1 [Example 41, 5-(3-chloro-4-((2,5-dimethylphenyl)amino)-2-((pyridin-3-yloxy)methyl)quinolin-6-yl)picolinonitrile] | 1000 to 10000 nM
CC(=O)NC1(c2ccc(-c3ccc4ncc(Cl)c(N[C@H](C)c5ccccc5F)c4c3)cc2)CCC1 [Example 113, (R)—N-(1-(4-(3-chloro-4-((1-(2-fluorophenyl)ethyl)amino)quinolin-6-yl)phenyl)cyclobutyl)acetamide] | 10000 to 25000 nM
Cc1nc2cc(F)c(-c3cnc(C(C)(C)O)nc3)nc2c(N[C@H](C)c2ccccc2)c1Cl [Example 213, (R)-2-(5-(7-chloro-3-fluoro-6-methyl-8-((1-phenylethyl)amino)-1,5-naphthyridin-2-yl)pyrimidin-2-yl)propan-2-ol] | < 1000 nM
Cc1nc2cc(F)c(-c3cnc(C(C)(C)O)nc3)cc2c(N[C@H](C)c2cc(OCCCO)ccc2F)c1Cl [Example 443, (R)-3-(3-(1-((3-chloro-7-fluoro-6-(2-(2-hydroxypropan-2-yl)pyrimidin-5-yl)-2-methylquinolin-4-yl)amino)ethyl)-4-fluorophenoxy)propan-1-ol] | < 1000 nM
C[C@@H](Nc1c(Cl)cnc2ccccc12)c1cc(-c2cncc(C#N)c2)ccc1F [Example 541, (R)-5-(3-(1-((3-chloroquinolin-4-yl)amino)ethyl)-4-fluorophenyl)nicotinonitrile] | 1000 to 10000 nM
C[C@@H](Nc1c(Cl)cnc2ccc(-c3cnc(C(C)(C)O)nc3)cc12)c1cc(Br)ccc1F [Example 318, (R)-2-(5-(4-((1-(5-bromo-2-fluorophenyl)ethyl)amino)-3-chloroquinolin-6-yl)pyrimidin-2-yl)propan-2-ol] | < 1000 nM
C[C@@H](Nc1c(Cl)cnc2ccccc12)c1cc(-c2ccncc2)ccc1F [Example 468, (R)-3-chloro-N-(1-(2-fluoro-5-(pyridin-4-yl)phenyl)ethyl)quinolin-4-amine] | 1000 to 10000 nM
Fc1ccc(-c2cncnc2)cc1[C@H](Nc1c(Cl)cnc2ccccc12)C(F)F [Example 559, (S)-3-chloro-N-(2,2-difluoro-1-(2-fluoro-5-(pyrimidin-5-yl)phenyl)ethyl)quinolin-4-amine] | < 1000 nM
CC(Nc1c(Cl)cnc2ccc(-c3cnc(C(C)(C)O)nc3)c(F)c12)c1ccccc1F (racemic) [Example 253, 2-(5-(3-chloro-5-fluoro-4-((1-(2-fluorophenyl)ethyl)amino)quinolin-6-yl)pyrimidin-2-yl)propan-2-ol] | < 1000 nM

Second part, the molecule after the results:

IC50 | SMILES
< 1000 nM | O=C(O)CN1CCN(c2ccc(-c3ccc4ncc(Cl)c(N[C@@H](c5ccccc5F)C(F)F)c4c3)cn2)CC1 [Example 15, (S)-2-(4-(5-(3-chloro-4-((2,2-difluoro-1-(2-fluorophenyl)ethyl)amino)quinolin-6-yl)pyridin-2-yl)piperazin-1-yl)acetic acid]
< 1000 nM | CC(C)(O)c1ncc(-c2nc3c(N[C@@H](c4cc(C(N)=O)ccc4F)C(F)F)c(Cl)cnc3cc2F)cn1 [Example 493, (S)-3-(1-((3-chloro-7-fluoro-6-(2-(2-hydroxypropan-2-yl)pyrimidin-5-yl)-1,5-naphthyridin-4-yl)amino)-2,2-difluoroethyl)-4-fluorobenzamide]
< 1000 nM | C=Cc1cccc([C@@H](C)Nc2c(Cl)cnc3cc(F)c(-c4cnc(C(C)(C)O)nc4)nc23)c1 [Example 574, (R)-2-(5-(7-chloro-3-fluoro-8-((1-(3-vinylphenyl)ethyl)amino)-1,5-naphthyridin-2-yl)pyrimidin-2-yl)propan-2-ol]
< 1000 nM | CC(Nc1c(Cl)cnc2cc(F)c(-c3cc(F)c(C(C)(C)O)c(F)c3)cc12)c1ccccc1F (stereo not drawn) [Example 268, 2-(4-(3-chloro-7-fluoro-4-((1-(2-fluorophenyl)ethyl)amino)quinolin-6-yl)-2,6-difluorophenyl) propan-2-ol]
< 1000 nM | Cc1nc2ccc(-c3cnc(C(C)(C)O)nc3)cc2c(N[C@H](C)c2cccc(C#N)c2)c1Cl [Example 386, (R)-3-(1-((3-chloro-6-(2-(2-hydroxypropan-2-yl)pyrimidin-5-yl)-2-methylquinolin-4-yl)amino)ethyl)benzonitrile]
< 1000 nM | CC(Nc1c(Cl)cnc2cc(F)c(-c3cnc(N4C[C@H]5CC[C@@H](C4)C5C(=O)O)nc3)cc12)c1ccccc1F (single isomer, unassigned) [Example 611]
< 1000 nM | CCOC(=O)C1CCN(c2ncc(-c3cc4c(NC(C)c5ccccc5F)c(Cl)cnc4cc3F)cn2)CC1 (single isomer, unassigned) [Example 243, ethyl-1-(5-(3-chloro-7-fluoro-4-((1-(2-fluorophenyl)ethyl)amino)quinolin-6-yl)pyrimidin-2-yl)piperidine-4-carboxylate]
< 1000 nM | OC[C@@H]1CN(c2ncc(-c3ccc4ncc(Cl)c(N[C@@H](c5ccccc5F)C(F)F)c4c3)cn2)CCN1 [Example 86, ((S)-4-(5-(3-chloro-4-(((S)-2,2-difluoro-1-(2-fluorophenyl)ethyl)amino)quinolin-6-yl)pyrimidin-2-yl)piperazin-2-yl)methanol]
< 1000 nM | Cc1ccc(C)c(Nc2c(Cl)c(N)nc3ccc(-c4cnc(N5CCNC(=O)C5)nc4)cc23)c1 [Example 72, 4-(5-(2-amino-3-chloro-4-((2,5-dimethylphenyl)amino)quinolin-6-yl)pyrimidin-2-yl)piperazin-2-one]
< 1000 nM | Cc1ccccc1-c1ccc(F)c([C@@H](C)Nc2c(Cl)c(C)nc3ccc(-c4cnc(C(C)(C)O)nc4)cc23)c1 [Example 332, (R)-2-(5-(3-chloro-4-((1-(4-fluoro-2′-methyl-[1,1′-biphenyl]-3-yl)ethyl)amino)-2-methylquinolin-6-yl)pyrimidin-2-yl)propan-2-ol]
